ChEMBL document CHEMBL4680289, “10-(4-Phenylpiperazine-1-carbonyl)acridin-9(10H)-ones and related compounds: Synthesis, antiproliferative activity and inhibition of tubulin polymerization” (Bioorg Med Chem Lett, 2021)
Calls of active or inactive are those of the source. The calls are words filed in the database; no cut-off is given here.

Legend:
K562 [1] = assay: Antiproliferative activity against human K562 cells assessed as cell growth inhibition measured after 48 hrs by MTT assay; type: functional, cell-based; conditions: K562, 48 h
[2] = Inhibition of porcine brain tubulin polymerization assessed as reduction in tubulin assembly at 37 degreeC measured after 40 mins in presence of GTP by turbidimetric analysis; parameters: species or system Sus scrofa
[3] = biological target: Tubulin beta (Homo sapiens) (UniProt P68371+Q9H4B7+Q13509+P04350+Q3ZCM7+P07437+Q13885+Q9BVA1+Q9BUF5+A6NNZ2); assay: Inhibition of N,N'-Ethylenebis(iodoacetamide) binding to beta-tubulin colchicine binding site in human K562 cells assessed as reduction in EBI/beta-tubulin adduct formation at 1 to 10 uM preincubated for 2.5 hrs followed by EBI addition and measured after 1.5 hrs by Western blot analysis; type: cell-based; conditions: dose 1-10 µM, time 4.0 hrs
K562 [4] = assay: Cell cycle arrest in human K562 cells assessed as increase in cell accumulation at G2/M phase at < 30 nM measured after 18 hrs by propidium iodide/RNase FACSCalibur staining based flow cytometry; type: functional; conditions: dose nM <30, time 18.0 hrs
K562 [5] = assay: Induction of apoptosis in human K562 cells assessed as viable cells at 1 micromol/L measured after 48 hrs by Annexin V-FITC/7-AAD staining based flow cytometric analysis (reference value: 92.85 %); type: functional; conditions: K562, 48 h, dose 1 µmol/L, read-out: Activity
K562 [6] = assay: Induction of apoptosis in human K562 cells assessed as late apoptotic cells at 1 micromol/L measured after 48 hrs by Annexin V-FITC/7-AAD staining based flow cytometric analysis (reference value: 2.49 %); type: functional; conditions: dose 1 µmol/L, at 1 µM
K562 [7] = assay: Induction of apoptosis in human K562 cells assessed as necrotic cells at 1 micromol/L measured after 48 hrs by Annexin V-FITC/7-AAD staining based flow cytometric analysis (reference value: 0.46 %); type: functional; conditions: dose 1 µmol/L, at 1 µM
K562 [8] = assay: Induction of apoptosis in human K562 cells assessed as viable cells at 0.3 micromol/L measured after 48 hrs by Annexin V-FITC/7-AAD staining based flow cytometric analysis (reference value: 92.85 %); type: functional; conditions: K562, 48 h, dose 0.3 µmol/L, read-out: Activity
K562 [9] = assay: Induction of apoptosis in human K562 cells assessed as early apoptotic cells at 0.3 micromol/L measured after 48 hrs by Annexin V-FITC/7-AAD staining based flow cytometric analysis (reference value: 4.2 %); type: functional; conditions: dose 0.3 µmol/L, at 0.3 µM
K562 [10] = assay: Induction of apoptosis in human K562 cells assessed as late apoptotic cells at 0.3 micromol/L measured after 48 hrs by Annexin V-FITC/7-AAD staining based flow cytometric analysis (reference value: 2.49 %); type: functional; conditions: dose 0.3 µmol/L, at 0.3 µM
K562 [11] = assay: Induction of apoptosis in human K562 cells assessed as viable cells at 0.1 micromol/L measured after 48 hrs by Annexin V-FITC/7-AAD staining based flow cytometric analysis (reference value: 92.85 %); type: functional; conditions: K562, 48 h, dose 0.1 µmol/L, read-out: Activity
K562 [12] = assay: Induction of apoptosis in human K562 cells assessed as early apoptotic cells at 0.1 micromol/L measured after 48 hrs by Annexin V-FITC/7-AAD staining based flow cytometric analysis (reference value: 4.2 %); type: functional; conditions: dose 0.1 µmol/L, at 0.1 µM
K562 [13] = assay: Induction of apoptosis in human K562 cells assessed as necrotic cells at 0.03 micromol/L measured after 48 hrs by Annexin V-FITC/7-AAD staining based flow cytometric analysis (reference value: 0.46 %); type: functional; conditions: dose 0.03 µmol/L, at 0.03 µM
K562 [14] = assay: Induction of apoptosis in human K562 cells assessed as viable cells at 0.01 micromol/L measured after 48 hrs by Annexin V-FITC/7-AAD staining based flow cytometric analysis (reference value: 92.85 %); type: functional; conditions: K562, 48 h, dose 0.01 µmol/L, read-out: Activity
K562 [15] = assay: Induction of apoptosis in human K562 cells assessed as late apoptotic cells at 0.01 micromol/L measured after 48 hrs by Annexin V-FITC/7-AAD staining based flow cytometric analysis (reference value: 2.49 %); type: functional; conditions: dose 0.01 µmol/L, at 0.01 µM
K562 [16] = assay: Induction of apoptosis in human K562 cells assessed as necrotic cells at 0.01 micromol/L measured after 48 hrs by Annexin V-FITC/7-AAD staining based flow cytometric analysis (reference value: 0.46 %); type: functional; conditions: dose 0.01 µmol/L, at 0.01 µM
K562 [17] = assay: Induction of apoptosis in human K562 cells assessed as viable cells at 0.1 uM measured after 6 hrs by Annexin V-FITC/7-AAD staining based flow cytometric analysis relative to control; type: functional; conditions: read-out: Activity
K562 [18] = assay: Induction of apoptosis in human K562 cells assessed as early apoptotic cells at 0.1 uM measured after 6 hrs by Annexin V-FITC/7-AAD staining based flow cytometric analysis relative to control; type: functional
K562 [19] = assay: Induction of apoptosis in human K562 cells assessed as late apoptotic cells at 0.1 uM measured after 6 hrs by Annexin V-FITC/7-AAD staining based flow cytometric analysis relative to control; type: functional
K562 [20] = assay: Induction of apoptosis in human K562 cells assessed as viable cells at 0.1 uM measured after 12 hrs by Annexin V-FITC/7-AAD staining based flow cytometric analysis relative to control; type: functional; conditions: read-out: Activity
K562 [21] = assay: Induction of apoptosis in human K562 cells assessed as necrotic cells at 0.1 uM measured after 12 hrs by Annexin V-FITC/7-AAD staining based flow cytometric analysis relative to control; type: functional
K562 [22] = assay: Induction of apoptosis in human K562 cells assessed as viable cells at 0.1 uM measured after 24 hrs by Annexin V-FITC/7-AAD staining based flow cytometric analysis relative to control; type: functional; conditions: read-out: Activity
K562 [23] = assay: Induction of apoptosis in human K562 cells assessed as early apoptotic cells at 0.1 uM measured after 24 hrs by Annexin V-FITC/7-AAD staining based flow cytometric analysis relative to control; type: functional
K562 [24] = assay: Induction of apoptosis in human K562 cells assessed as late apoptotic cells at 0.1 uM measured after 24 hrs by Annexin V-FITC/7-AAD staining based flow cytometric analysis relative to control; type: functional
K562 [25] = assay: Induction of apoptosis in human K562 cells assessed as necrotic cells at 0.1 uM measured after 24 hrs by Annexin V-FITC/7-AAD staining based flow cytometric analysis relative to control; type: functional
K562 [26] = assay: Induction of apoptosis in human K562 cells assessed as early apoptotic cells at 0.1 uM measured after 72 hrs by Annexin V-FITC/7-AAD staining based flow cytometric analysis relative to control; type: functional
K562 [27] = assay: Induction of apoptosis in human K562 cells assessed as late apoptotic cells at 0.1 uM measured after 72 hrs by Annexin V-FITC/7-AAD staining based flow cytometric analysis relative to control; type: functional
K562 [28] = assay: Induction of apoptosis in human K562 cells assessed as necrotic cells at 0.1 uM measured after 72 hrs by Annexin V-FITC/7-AAD staining based flow cytometric analysis relative to control; type: functional
K562 [29] = assay: Induction of apoptosis in human K562 cells measured after 48 hrs by Annexin V-FITC/7-AAD staining based flow cytometric analysis; type: functional, cell-based; conditions: dose 0.01-3 µmol/L
K562 [30] = assay: Induction of apoptosis in human K562 cells at 30 nM measured after 48 hrs by Annexin V-FITC/7-AAD staining based flow cytometric analysis; type: functional, cell-based

## COc1cc(OC)cc(N2CCN(C(=O)n3c4ccccc4c(=O)c4ccccc43)CC2)c1
K562 [1]
  IC50: 13 nM
[2]
  IC50: 350 nM
[3]
  inhibition: Active
K562 [4]
  Activity: Active
K562 [5]
  viability at 1 µM: 41%
K562 [6]
  Activity: 31.22%
K562 [7]
  Activity: 0.35%
K562 [8]
  viability at 0.3 µM: 42.6%
K562 [9]
  Activity: 24.76%
K562 [10]
  Activity: 32.32%
K562 [11]
  viability at 0.1 µM: 41.5%
K562 [12]
  Activity: 26.08%
K562 [13]
  Activity: 0.53%
K562 [14]
  viability at 0.01 µM: 88.6%
K562 [15]
  Activity: 4.85%
K562 [16]
  Activity: 0.27%
K562 [17]
  viability at 0.1 µM: 91.6%
K562 [18]
  Activity: 4.84%
K562 [19]
  Activity: 3.3%
K562 [20]
  viability at 0.1 µM: 87.8%
K562 [21]
  Activity: 0.29%
K562 [22]
  viability at 0.1 µM: 66.3%
K562 [23]
  Activity: 26.44%
K562 [24]
  Activity: 7.02%
K562 [25]
  Activity: 0.23%
K562 [26]
  Activity: 11.57%
K562 [27]
  Activity: 65.69%
K562 [28]
  Activity: 4.54%
K562 [29]
  Activity: Dose-dependent effect
K562 [30]
  Activity: Active
